# Measured values as given in PubChem BioAssay (NCI).
# “And” between values parts separate entries of the source, which are not always exact repeats. Equal entries are not always repeated.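 Assay format: 96-well plates, 48-hour exposure. Here, GI50 denotes the concentration required for 50% inhibition of growth. The concentration for full growth arrest is given as TGI.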
# Legend:
# Test in all cases: NCI anticancer screen, dose series, 48 h
# [1] = system: MALME-3M melanoma
# [2] = system: OVCAR-5 ovarian
# [3] = system: BT-549 breast
# [4] = system: UO-31 renal
# [5] = system: HOP-92 NSCLC
# [6] = system: HL-60(TB) leukemia
# [7] = system: SF-295 CNS
# [8] = system: UACC-62 melanoma
# [9] = system: DU-145 prostate
# [10] = system: ACHN renal
# [11] = system: NCI-H226 lung
# [12] = system: SK-OV-3 ovarian
# [13] = system: UACC-257 melanoma
# [14] = system: SK-MEL-2 melanoma
# [15] = system: HOP-62 NSCLC
# [16] = system: HS 578T breast
# [17] = system: HCC-2998 colon
# [18] = system: KM12 colon
# [19] = system: PC-3 prostate
# [20] = system: SK-MEL-5 melanoma
# [21] = system: TK-10 renal
# [22] = system: SF-268 CNS
# [23] = system: RPMI-8226 leukemia
# [24] = system: A498 renal
# [25] = system: HT29 colon
# [26] = system: T-47D breast
# [27] = system: COLO 205 colon
# [28] = system: SNB-75 CNS
# [29] = system: SF-539 CNS
# [30] = system: MDA-MB-435
# [31] = system: SK-MEL-28 melanoma
# [32] = system: M14 melanoma
# [33] = system: CCRF-CEM leukemia
# [34] = system: HCT-15 colon
# [35] = system: U251 CNS
# [36] = system: OVCAR-4 ovarian
# [37] = system: NCI/ADR-RES ovarian
# [38] = system: HCT-116 colon
# [39] = system: NCI-H23 lung
# [40] = system: CAKI-1 renal
# [41] = system: K-562 leukemia
# [42] = system: LOX IMVI melanoma
# [43] = system: IGROV1 ovarian
# [44] = system: MDA-MB-231 breast
# [45] = system: MCF7 breast
# [46] = system: OVCAR-8 ovarian
# [47] = system: SW-620 colon
# [48] = system: 786-0 renal
# [49] = system: NCI-H460 lung
# [50] = system: EKVX NSCLC
# [51] = system: RXF 393 renal
# [52] = system: SNB-19 CNS
# [53] = system: SR leukemia
# [54] = system: OVCAR-3 ovarian
# [55] = system: SN12C renal
# [56] = system: MOLT-4 leukemia
# [57] = system: A549 NSCLC
# [58] = system: NCI-H522 lung
structure (smiles),measurement,setting,value
N=C(N)c1ccc(-c2ccc(-c3ccc(Cl)cc3Cl)s2)cc1,GI50,[1],1.74 µM
same,TGI,[1],3.29 µM
same,GI50,[2],1.79 µM
same,TGI,[2],3.29 µM
same,GI50,[3],2.18 µM
same,TGI,[3],6.62 µM
same,GI50,[4],1.58 µM
same,TGI,[4],3 µM
same,GI50,[5],1.58 µM
same,TGI,[5],3.17 µM
same,GI50,[6],1.97 µM
same,TGI,[6],4.49 µM
same,GI50,[7],1.77 µM
same,TGI,[7],3.19 µM
same,GI50,[8],1.73 µM
same,TGI,[8],3.19 µM
same,GI50,[9],1.79 µM
same,TGI,[9],3.19 µM
same,GI50,[10],1.7 µM
same,TGI,[10],3.07 µM
N=C(N)c1ccc(-c2ccc(-c3ccc(Cl)c(Cl)c3)s2)nc1,GI50,[11],1.94 µM
same,TGI,[11],4.63 µM
same,GI50,[12],8.06 µM
same,TGI,[12],31.8 µM
same,GI50,[3],3.18 µM
same,TGI,[3],31.6 µM
same,GI50,[13],2.14 µM
same,TGI,[13],4.77 µM
same,GI50,[14],3.43 µM
same,TGI,[14],15.2 µM
same,GI50,[6],1.89 µM
same,TGI,[6],4.39 µM
O=C(/C=C\c1ccccc1)N1CCc2ccccc2C1,TGI,[15],> 100 µM
same,TGI,[16],> 100 µM
same,TGI,[17],> 100 µM
same,TGI,[18],> 100 µM
same,TGI,[19],> 100 µM
same,TGI,[20],39.9 µM
same,TGI,[21],> 100 µM
same,TGI,[11],> 100 µM
same,TGI,[22],> 100 µM
same,TGI,[23],52.4 µM
same,TGI,[24],> 100 µM
same,TGI,[25],> 100 µM
same,TGI,[12],> 100 µM
same,TGI,[26],> 100 µM
same,TGI,[27],57.1 µM
same,TGI,[13],> 100 µM
same,TGI,[28],> 100 µM
same,TGI,[29],> 100 µM
same,TGI,[30],84.1 µM
same,TGI,[31],> 100 µM
same,TGI,[32],> 100 µM
same,TGI,[33],91.3 µM
same,TGI,[34],> 100 µM
same,TGI,[35],> 100 µM
same,TGI,[36],> 100 µM
same,TGI,[4],> 100 µM
same,TGI,[14],91.3 µM
same,TGI,[37],> 100 µM
same,TGI,[38],> 100 µM
same,TGI,[5],> 100 µM
same,TGI,[6],83.6 µM
same,TGI,[7],> 100 µM
same,TGI,[39],51.9 µM
same,TGI,[40],> 100 µM
same,TGI,[41],45.8 µM
same,TGI,[42],> 100 µM
same,TGI,[43],> 100 µM
same,TGI,[8],> 100 µM
same,TGI,[44],> 100 µM
same,TGI,[45],> 100 µM
same,TGI,[46],> 100 µM
same,TGI,[9],> 100 µM
same,TGI,[47],> 100 µM
same,TGI,[48],> 100 µM
same,TGI,[49],> 100 µM
same,TGI,[50],> 100 µM
same,TGI,[51],> 100 µM
same,TGI,[10],> 100 µM
same,TGI,[52],> 100 µM
same,TGI,[53],69.1 µM
Fc1cc(-c2cc(-c3ccc4c(c3)OCO4)n[nH]2)c(Cl)cc1Cl,TGI,[15],5.81 µM
same,TGI,[16],> 45.4 µM
same,TGI,[17],15.6 µM
same,TGI,[18],> 22.7 µM
same,TGI,[19],11.1 µM
same,TGI,[20],21 µM
same,TGI,[21],7.06 µM
same,TGI,[11],5.7 µM
same,TGI,[1],24.8 µM
same,TGI,[22],9.7 µM
same,TGI,[23],> 46.4 µM
same,TGI,[2],13.7 µM
same,TGI,[25],15.9 µM
same,TGI,[12],5.44 µM
same,TGI,[26],7.79 µM
same,TGI,[54],5.33 µM
same,TGI,[3],20.7 µM
same,TGI,[27],> 23.4 µM
same,TGI,[13],27.9 µM
same,TGI,[28],3.68 µM
same,TGI,[29],6.24 µM
same,TGI,[30],30.9 µM
same,TGI,[31],16.9 µM
same,TGI,[32],18.3 µM
same,TGI,[33],> 89 µM
same,TGI,[34],49.1 µM
same,TGI,[55],7.58 µM
same,TGI,[35],3.63 µM
same,TGI,[36],4.49 µM
same,TGI,[4],6.46 µM
same,TGI,[14],36.5 µM
same,TGI,[37],12.4 µM
same,TGI,[38],4.17 µM
same,TGI,[5],6.21 µM
same,TGI,[56],> 50.7 µM
same,TGI,[6],> 100 µM
same,TGI,[7],9.4 µM
same,TGI,[39],7.73 µM
same,TGI,[40],10.8 µM
same,TGI,[41],> 40.1 µM
same,TGI,[42],8.49 µM
same,TGI,[43],7.5 µM
same,TGI,[8],3.8 µM
same,TGI,[44],4.94 µM
same,TGI,[46],3.41 µM
same,TGI,[57],7.86 µM
same,TGI,[9],13 µM
same,TGI,[47],28.9 µM
same,TGI,[58],14.6 µM
same,TGI,[48],3.59 µM
same,TGI,[49],14.6 µM
same,TGI,[50],5.17 µM
same,TGI,[51],4.45 µM
same,TGI,[10],3.86 µM
same,TGI,[52],12.9 µM
same,TGI,[53],> 50.1 µM
Cc1nc(Nc2ncc(C(=O)Nc3c(C)cccc3Cl)s2)cc(N2CCN(CCO)CC2)n1,GI50,[18],7.66 µM [middle of 4 runs]
same,GI50,[21],0.0222 µM and 0.0109 µM and 0.00843 µM
same,GI50,[1],6.6 µM [middle of 4 runs]
same,GI50,[22],70.4 nM [middle of 4 runs]
same,GI50,[2],38.1 nM [middle of 4 runs]
same,GI50,[25],0.0197 µM and 0.0193 µM and 0.0272 µM
same,GI50,[28],< 0.01 µM and 0.00468 µM and < 0.0111 µM
same,TGI,[28],0.0257 µM and 0.0563 µM and 0.0587 µM
same,GI50,[29],53.3 nM [middle of 4 runs]
same,GI50,[30],5.7 µM [middle of 4 runs]
same,TGI,[31],29 µM and > 10 µM and 20 µM
same,GI50,[32],3.51 µM [middle of 4 runs]
same,GI50,[34],792 nM [middle of 4 runs]
same,GI50,[35],3.17 µM [middle of 4 runs]
same,GI50,[37],3.2 µM [middle of 4 runs]
same,GI50,[41],< 0.01 µM and 0.002 µM
same,GI50,[42],14.2 nM [middle of 4 runs]
same,GI50,[8],5.69 µM [middle of 4 runs]
same,GI50,[44],19.7 nM [middle of 4 runs]
same,GI50,[46],55.8 nM [middle of 4 runs]
same,GI50,[57],49.9 nM [middle of 4 runs]
same,GI50,[9],158 nM [middle of 4 runs]
same,TGI,[9],> 10 µM and 20 µM and 13.5 µM
same,GI50,[49],8.34 µM [middle of 4 runs]
